Eleven compounds from PubChem BioAssay (NCI) can be followed below.

Structures are written as SMILES.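 A five-concentration, 48-hour dose response in 96-well plates underlies each endpoint, interpolated linearly between surrounding concentrations. The concentration for 50% growth inhibition is given as GI50. The concentration for full growth arrest is given as TGI.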 Some results are limits rather than exact numbers.

The first test relates to M14 melanoma. As to the kind of experiment: NCI tumour cell line growth inhibition, 48 h.
Turning to `COCOC1/C=C/CCCC#C[C@H](C)C(=O)CC1` (some centres undefined), the TGI amounted to 21 µM.

As for `COc1ccc2[nH]c(O)c(/C=c3/cc4c(c(-c5cc(OC)c(OC)c(OC)c5)n3)=Nc3ccccc3-4)c2c1`, the GI50 is 6.32 µM and the TGI is greater than 100 µM.

On to `CC[C@]1(Cc2ccc(OC)c(OC)c2)CN(S(=O)(=O)c2ccc(C)cc2)C[C@@H]1OC(C)=O`, for which the TGI was greater than 100 µM.

Turning to `NCC1CCN(c2nc3ccccc3c3c2CCCC3)CC1`, the TGI amounted to 3.71 µM.

In turn, `Cc1c(F)c(N)c2c(=O)cc(-c3ccc(NC(=O)CN(C)C)c(F)c3)oc2c1F` had a TGI greater than 100 µM.

As for `COc1ccccc1Nc1nc(N)nc(N)c1N=O`, the TGI is greater than 100 µM.

Take `COc1cccc2c(N)c3cccc(C(=O)NCCN(C)C)c3nc12`: the TGI is 1.71 µM.

As for `O=C(CCCCCCCCC(=O)NN1C(=O)/C(=C\c2ccc(O)c(O)c2)SC1c1ccc(Cl)cc1)NN1C(=O)/C(=C\c2ccc(O)c(O)c2)SC1c1ccc(Cl)cc1` (centres undefined), the TGI was greater than 100 µM.

`CC(C)Sc1nc(C#N)cc2c1CCCC2` came in with a TGI greater than 100 µM.

`NC(=O)N/N=C(\Cc1nc2ccc(Cl)cc2[nH]c1=O)C(=O)Nc1ccc(Cl)cc1Cl`: the TGI is greater than 100 µM.

As to `O=C1/C(=C/c2ccccc2)N=C(c2ccccc2)N1n1c(-c2ccccc2)nc2ccccc2c1=O`, the TGI was greater than 100 µM.

The next test has as its system UACC-62 melanoma. As to the kind of experiment: NCI tumour cell line growth inhibition, 48 h.
The compound `COCOC1/C=C/CCCC#C[C@H](C)C(=O)CC1` (some centres undefined) showed a TGI of 22.6 µM.

`COc1ccc2[nH]c(O)c(/C=c3/cc4c(c(-c5cc(OC)c(OC)c(OC)c5)n3)=Nc3ccccc3-4)c2c1`: the GI50 is 13.6 µM and the TGI was greater than 100 µM.

In turn, `CC[C@]1(Cc2ccc(OC)c(OC)c2)CN(S(=O)(=O)c2ccc(C)cc2)C[C@@H]1OC(C)=O` came in with a TGI greater than 100 µM.

In turn, `NCC1CCN(c2nc3ccccc3c3c2CCCC3)CC1` returned a TGI of 4.96 µM.

Consider `Cc1c(F)c(N)c2c(=O)cc(-c3ccc(NC(=O)CN(C)C)c(F)c3)oc2c1F`, for which the TGI is greater than 94.2 µM.

Compound `COc1ccccc1Nc1nc(N)nc(N)c1N=O` showed a TGI greater than 100 µM.

The compound `COc1cccc2c(N)c3cccc(C(=O)NCCN(C)C)c3nc12` returned a TGI of 0.78 µM.

`O=C(CCCCCCCCC(=O)NN1C(=O)/C(=C\c2ccc(O)c(O)c2)SC1c1ccc(Cl)cc1)NN1C(=O)/C(=C\c2ccc(O)c(O)c2)SC1c1ccc(Cl)cc1` (centres undefined): the TGI came out at 60.2 µM.

`CC(C)Sc1nc(C#N)cc2c1CCCC2` showed a TGI greater than 100 µM.

For the compound `NC(=O)N/N=C(\Cc1nc2ccc(Cl)cc2[nH]c1=O)C(=O)Nc1ccc(Cl)cc1Cl`, the TGI is greater than 100 µM.

On to `O=C1/C(=C/c2ccccc2)N=C(c2ccccc2)N1n1c(-c2ccccc2)nc2ccccc2c1=O`, for which the TGI was greater than 100 µM.

A further test relates to OVCAR-8 ovarian. As to the kind of experiment: NCI tumour cell line growth inhibition, 48 h.
With `COCOC1/C=C/CCCC#C[C@H](C)C(=O)CC1` (some centres undefined), the TGI turned out to be 38 µM.

As to `COc1ccc2[nH]c(O)c(/C=c3/cc4c(c(-c5cc(OC)c(OC)c(OC)c5)n3)=Nc3ccccc3-4)c2c1`, the GI50 is 3.77 µM and the TGI was greater than 100 µM.

`CC[C@]1(Cc2ccc(OC)c(OC)c2)CN(S(=O)(=O)c2ccc(C)cc2)C[C@@H]1OC(C)=O` yielded a TGI greater than 100 µM.

For the compound `NCC1CCN(c2nc3ccccc3c3c2CCCC3)CC1`, the TGI came out at 42.9 µM.

Consider `Cc1c(F)c(N)c2c(=O)cc(-c3ccc(NC(=O)CN(C)C)c(F)c3)oc2c1F`, for which the TGI was greater than 100 µM.

`COc1ccccc1Nc1nc(N)nc(N)c1N=O` had a TGI greater than 100 µM.

`COc1cccc2c(N)c3cccc(C(=O)NCCN(C)C)c3nc12`: the TGI stood at 0.594 µM.

For the compound `O=C(CCCCCCCCC(=O)NN1C(=O)/C(=C\c2ccc(O)c(O)c2)SC1c1ccc(Cl)cc1)NN1C(=O)/C(=C\c2ccc(O)c(O)c2)SC1c1ccc(Cl)cc1` (centres undefined), the TGI was 34 µM.

`CC(C)Sc1nc(C#N)cc2c1CCCC2`: the TGI is greater than 100 µM.

The compound `NC(=O)N/N=C(\Cc1nc2ccc(Cl)cc2[nH]c1=O)C(=O)Nc1ccc(Cl)cc1Cl` gave a TGI greater than 100 µM.

On to `O=C1/C(=C/c2ccccc2)N=C(c2ccccc2)N1n1c(-c2ccccc2)nc2ccccc2c1=O`, for which the TGI is greater than 100 µM.

The next test relates to NCI-H460 lung. Nature of the test: NCI tumour cell line growth inhibition, 48 h.
`COCOC1/C=C/CCCC#C[C@H](C)C(=O)CC1` (some centres undefined) displayed a TGI of 25.5 µM.

With `COc1ccc2[nH]c(O)c(/C=c3/cc4c(c(-c5cc(OC)c(OC)c(OC)c5)n3)=Nc3ccccc3-4)c2c1`, the GI50 was 4.07 µM and the TGI is greater than 100 µM.

`CC[C@]1(Cc2ccc(OC)c(OC)c2)CN(S(=O)(=O)c2ccc(C)cc2)C[C@@H]1OC(C)=O` came in with a TGI greater than 100 µM.

Consider `NCC1CCN(c2nc3ccccc3c3c2CCCC3)CC1`, for which the TGI came to 17.6 µM.

In turn, `Cc1c(F)c(N)c2c(=O)cc(-c3ccc(NC(=O)CN(C)C)c(F)c3)oc2c1F` returned a TGI greater than 100 µM.

Consider `COc1ccccc1Nc1nc(N)nc(N)c1N=O`, for which the TGI was greater than 100 µM.

Regarding `COc1cccc2c(N)c3cccc(C(=O)NCCN(C)C)c3nc12`, the TGI came to 1.72 µM.

In the case of `O=C(CCCCCCCCC(=O)NN1C(=O)/C(=C\c2ccc(O)c(O)c2)SC1c1ccc(Cl)cc1)NN1C(=O)/C(=C\c2ccc(O)c(O)c2)SC1c1ccc(Cl)cc1` (centres undefined), the TGI was greater than 100 µM.

The compound `CC(C)Sc1nc(C#N)cc2c1CCCC2` showed a TGI greater than 100 µM.

Compound `NC(=O)N/N=C(\Cc1nc2ccc(Cl)cc2[nH]c1=O)C(=O)Nc1ccc(Cl)cc1Cl` showed a TGI greater than 100 µM.

`O=C1/C(=C/c2ccccc2)N=C(c2ccccc2)N1n1c(-c2ccccc2)nc2ccccc2c1=O` yielded a TGI greater than 100 µM.

Another test deals with SF-539 CNS. Nature of the test: NCI tumour cell line growth inhibition, 48 h.
On to `COCOC1/C=C/CCCC#C[C@H](C)C(=O)CC1` (some centres undefined), for which the TGI was found to be 30.4 µM.

Take `COc1ccc2[nH]c(O)c(/C=c3/cc4c(c(-c5cc(OC)c(OC)c(OC)c5)n3)=Nc3ccccc3-4)c2c1`: the GI50 is 22.6 µM and the TGI is greater than 100 µM.

`CC[C@]1(Cc2ccc(OC)c(OC)c2)CN(S(=O)(=O)c2ccc(C)cc2)C[C@@H]1OC(C)=O` showed a TGI greater than 100 µM.

`NCC1CCN(c2nc3ccccc3c3c2CCCC3)CC1` came in with a TGI of 11.3 µM.

`Cc1c(F)c(N)c2c(=O)cc(-c3ccc(NC(=O)CN(C)C)c(F)c3)oc2c1F` had a TGI greater than 100 µM.
